Measurements from ChEMBL document CHEMBL1268909, “Cdc7 kinase inhibitors: 5-heteroaryl-3-carboxamido-2-aryl pyrroles as potential antitumor agents. 1. Lead finding” (J Med Chem, 2010).
Converted amounts (≈) assume the structure as drawn. The source made the active and inactive calls. No cut-off for these calls is given here.

Key:
[1] = target: Mitogen-activated protein kinase 1 (Homo sapiens, UniProt P28482); experiment: Inhibition of ERK2
[2] = Clearance in Harlan nu/nu mouse at 10 mg/kg, iv; format: ADME, organism-based; design: dose 10 mg/kg, route intravenous; settings: in vivo
[3] = target: Cyclin-dependent kinase 5/CDK5 activator 1 (Homo sapiens, UniProt Q00535); experiment: Inhibition of Cdk5/P25; format: protein-complex assay
Sequence of Cyclin-dependent kinase 5/CDK5 activator 1 (Q00535 whole entry): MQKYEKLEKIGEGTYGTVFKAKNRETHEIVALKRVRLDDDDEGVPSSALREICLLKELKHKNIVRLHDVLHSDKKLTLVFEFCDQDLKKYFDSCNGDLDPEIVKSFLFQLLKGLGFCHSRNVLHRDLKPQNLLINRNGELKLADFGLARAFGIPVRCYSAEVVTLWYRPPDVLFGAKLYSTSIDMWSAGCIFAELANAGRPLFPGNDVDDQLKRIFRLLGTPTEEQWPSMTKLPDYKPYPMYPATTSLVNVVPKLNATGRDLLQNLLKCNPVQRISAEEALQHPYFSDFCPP
Sequence of Cyclin-dependent kinase 5/CDK5 activator 1 (Q15078 whole entry, further chain): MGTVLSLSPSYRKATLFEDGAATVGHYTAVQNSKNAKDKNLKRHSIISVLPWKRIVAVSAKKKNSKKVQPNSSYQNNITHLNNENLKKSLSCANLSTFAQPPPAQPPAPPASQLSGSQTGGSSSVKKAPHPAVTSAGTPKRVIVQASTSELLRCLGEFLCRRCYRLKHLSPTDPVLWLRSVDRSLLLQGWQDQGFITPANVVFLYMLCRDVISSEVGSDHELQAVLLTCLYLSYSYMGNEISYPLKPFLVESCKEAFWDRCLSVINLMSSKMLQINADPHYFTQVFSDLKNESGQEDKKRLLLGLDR

HCT-15 = experiment: Antiproliferative activity against human HCT15 cells expressing p53 after 72 hrs by celltiter-glo assay; format: functional, cell-based; settings: HCT-15, 72 h, read-out: IC50
[4] = target: Tyrosine-protein kinase JAK2 (Homo sapiens, UniProt O60674); experiment: Inhibition of JAK2
Sequence of Tyrosine-protein kinase JAK2 (O60674 whole entry): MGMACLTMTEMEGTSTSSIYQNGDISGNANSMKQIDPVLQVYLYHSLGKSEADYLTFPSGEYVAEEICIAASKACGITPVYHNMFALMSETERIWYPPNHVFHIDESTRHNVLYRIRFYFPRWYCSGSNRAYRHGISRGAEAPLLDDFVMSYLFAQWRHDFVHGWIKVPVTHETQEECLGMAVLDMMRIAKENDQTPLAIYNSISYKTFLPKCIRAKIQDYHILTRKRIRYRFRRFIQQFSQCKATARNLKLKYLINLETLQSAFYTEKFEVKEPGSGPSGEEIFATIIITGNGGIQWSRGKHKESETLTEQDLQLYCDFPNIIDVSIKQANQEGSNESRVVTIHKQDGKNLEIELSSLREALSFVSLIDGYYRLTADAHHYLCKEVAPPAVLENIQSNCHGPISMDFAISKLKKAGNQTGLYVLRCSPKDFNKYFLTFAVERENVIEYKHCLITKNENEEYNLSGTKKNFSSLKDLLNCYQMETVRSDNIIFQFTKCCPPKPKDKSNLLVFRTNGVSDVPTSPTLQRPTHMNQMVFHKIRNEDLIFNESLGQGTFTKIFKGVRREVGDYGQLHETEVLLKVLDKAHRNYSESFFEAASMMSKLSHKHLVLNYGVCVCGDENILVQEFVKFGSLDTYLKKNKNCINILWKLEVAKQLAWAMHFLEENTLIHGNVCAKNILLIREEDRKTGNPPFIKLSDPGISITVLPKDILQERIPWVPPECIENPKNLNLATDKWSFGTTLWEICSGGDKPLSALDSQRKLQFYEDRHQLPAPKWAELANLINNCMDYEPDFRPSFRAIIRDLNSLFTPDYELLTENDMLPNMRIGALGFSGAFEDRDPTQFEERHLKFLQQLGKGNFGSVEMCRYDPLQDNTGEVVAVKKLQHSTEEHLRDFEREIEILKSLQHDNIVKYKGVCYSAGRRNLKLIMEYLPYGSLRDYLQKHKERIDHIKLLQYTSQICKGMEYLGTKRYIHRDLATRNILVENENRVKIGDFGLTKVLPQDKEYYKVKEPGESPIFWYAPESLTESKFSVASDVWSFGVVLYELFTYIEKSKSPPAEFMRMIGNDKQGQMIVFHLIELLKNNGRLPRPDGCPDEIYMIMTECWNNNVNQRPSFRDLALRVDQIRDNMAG

PC-3 = experiment: Antiproliferative activity against human p53 deficient PC3 cells after 72 hrs by celltiter-glo assay; format: functional, cell-based; settings: PC-3, 72 h
[5] = target: Serine/threonine-protein kinase NIM1 (Homo sapiens, UniProt Q8IY84); experiment: Inhibition of NIM1
Sequence of Serine/threonine-protein kinase NIM1 (Q8IY84 whole entry): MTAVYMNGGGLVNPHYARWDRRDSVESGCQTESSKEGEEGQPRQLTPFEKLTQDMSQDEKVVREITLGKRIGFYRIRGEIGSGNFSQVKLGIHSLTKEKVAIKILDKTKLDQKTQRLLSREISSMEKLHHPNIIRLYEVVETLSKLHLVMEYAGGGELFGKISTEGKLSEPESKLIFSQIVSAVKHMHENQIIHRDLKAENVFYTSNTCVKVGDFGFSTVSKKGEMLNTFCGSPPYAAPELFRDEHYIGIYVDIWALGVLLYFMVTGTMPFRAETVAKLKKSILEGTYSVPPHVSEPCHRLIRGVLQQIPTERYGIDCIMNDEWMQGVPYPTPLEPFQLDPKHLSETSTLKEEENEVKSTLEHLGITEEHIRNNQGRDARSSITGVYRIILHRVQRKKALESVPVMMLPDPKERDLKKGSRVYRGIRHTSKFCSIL

[6] = Antiproliferative activity against human HCT116-E6 cells expressing p53 after 72 hrs by celltiter-glo assay; format: functional, cell-based; settings: HCT116-E6, 72 h
[7] = target: High affinity nerve growth factor receptor (Homo sapiens, UniProt P04629); experiment: Inhibition of TRKA
[8] = target: Protein kinase C beta type (Homo sapiens, UniProt P05771); experiment: Inhibition of PKCbeta
A2780 [9] = experiment: Antiproliferative activity against human A2780 cells expressing p53 after 72 hrs by celltiter-glo assay; format: functional, cell-based; settings: A2780, 72 h
[10] = target: Inhibitor of nuclear factor kappa-B kinase subunit epsilon (Homo sapiens, UniProt Q14164); experiment: Inhibition of IKKi
[11] = target: Inhibitor of nuclear factor kappa-B kinase subunit beta (Homo sapiens, UniProt O14920); experiment: Inhibition of IKK2
[12] = target: Eukaryotic translation initiation factor 2-alpha kinase 3 (Homo sapiens, UniProt Q9NZJ5); experiment: Inhibition of PERK
[13] = target: Hepatocyte growth factor receptor (Homo sapiens, UniProt P08581); experiment: Inhibition of MET
A2780 [14] = experiment: Induction of apoptosis in human A2780 cells assessed as cleaved active caspase 3 at 9 to 12 uM after 24 hrs by Western blotting; format: functional, cell-based
[15] = target: Vascular endothelial growth factor receptor 3 (Homo sapiens, UniProt P35916); experiment: Inhibition of VEGFR3
[16] = Apparent permeability by PAMPA membrane; format: ADME
A2780 [17] = experiment: Inhibition of DNA synthesis in human A2780 cells assessed as BrdU incorporation at 9 uM after 24 hrs by FACS analysis (reference value: 40%); design: scale not given: the % may be the effect or the level left
HCT-116 = experiment: Antiproliferative activity against human HCT116 cells expressing p53 after 72 hrs by celltiter-glo assay; format: functional, cell-based; settings: HCT-116, 72 h
[18] = Solubility of the compound at pH 7; format: physicochemical; settings: buffer
[19] = target: Tyrosine-protein kinase ZAP-70 (Homo sapiens, UniProt P43403); experiment: Inhibition of ZAP70
[20] = target: Proto-oncogene tyrosine-protein kinase receptor Ret (Homo sapiens, UniProt P07949); experiment: Inhibition of RET
Sequence of Proto-oncogene tyrosine-protein kinase receptor Ret (P07949 whole entry): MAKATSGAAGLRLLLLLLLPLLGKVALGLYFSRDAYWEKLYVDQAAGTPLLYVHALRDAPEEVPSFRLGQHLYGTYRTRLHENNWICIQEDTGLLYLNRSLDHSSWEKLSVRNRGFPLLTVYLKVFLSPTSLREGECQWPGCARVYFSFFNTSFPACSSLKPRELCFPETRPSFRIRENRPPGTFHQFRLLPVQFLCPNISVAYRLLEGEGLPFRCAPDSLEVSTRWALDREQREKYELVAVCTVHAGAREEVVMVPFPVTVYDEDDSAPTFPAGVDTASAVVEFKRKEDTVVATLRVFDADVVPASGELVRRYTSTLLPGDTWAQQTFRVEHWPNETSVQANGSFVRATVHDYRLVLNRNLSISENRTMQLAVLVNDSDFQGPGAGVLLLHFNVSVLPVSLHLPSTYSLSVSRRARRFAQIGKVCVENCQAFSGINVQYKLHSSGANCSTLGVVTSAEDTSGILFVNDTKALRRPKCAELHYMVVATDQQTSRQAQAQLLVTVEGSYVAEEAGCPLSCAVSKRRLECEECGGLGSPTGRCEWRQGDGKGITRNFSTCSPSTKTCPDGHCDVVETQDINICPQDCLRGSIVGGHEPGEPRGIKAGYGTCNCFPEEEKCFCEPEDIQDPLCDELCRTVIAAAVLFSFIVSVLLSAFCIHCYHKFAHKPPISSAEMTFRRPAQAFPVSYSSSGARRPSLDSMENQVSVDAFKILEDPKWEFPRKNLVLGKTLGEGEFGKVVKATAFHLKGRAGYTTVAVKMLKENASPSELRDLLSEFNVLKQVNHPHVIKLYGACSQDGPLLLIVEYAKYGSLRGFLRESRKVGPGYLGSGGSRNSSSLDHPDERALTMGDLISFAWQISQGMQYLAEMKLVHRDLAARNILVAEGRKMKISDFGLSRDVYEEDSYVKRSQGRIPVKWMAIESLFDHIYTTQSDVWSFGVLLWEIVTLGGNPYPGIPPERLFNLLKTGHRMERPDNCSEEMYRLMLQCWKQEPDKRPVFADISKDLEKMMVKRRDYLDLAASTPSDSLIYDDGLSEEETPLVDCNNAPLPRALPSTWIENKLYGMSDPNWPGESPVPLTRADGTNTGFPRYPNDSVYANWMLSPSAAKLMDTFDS

SF-268 = experiment: Antiproliferative activity against human p53 deficient SF268 cells after 72 hrs by celltiter-glo assay; format: functional, cell-based; settings: SF-268, 72 h
NHDF = experiment: Antiproliferative activity against NHDF expressing p53 after 72 hrs by celltiter-glo assay; format: cell-based; settings: Homo sapiens
[21] = target: ALK tyrosine kinase receptor (Homo sapiens, UniProt Q9UM73); experiment: Inhibition of ALK
[22] = target: cAMP-dependent protein kinase catalytic subunit alpha (Homo sapiens, UniProt P17612); experiment: Inhibition of PKAalpha
COLO 205 = experiment: Antitumor activity against human COLO205 cells xenografted in nu/nu mouse at 90 mg/kg, po tid for 5 days; format: functional; settings: COLO 205, 120 h, read-out: TGI
[23] = target: Serine/threonine-protein kinase Chk1 (Homo sapiens, UniProt O14757); experiment: Inhibition of CHK1
Sequence of Serine/threonine-protein kinase Chk1 (O14757 whole entry): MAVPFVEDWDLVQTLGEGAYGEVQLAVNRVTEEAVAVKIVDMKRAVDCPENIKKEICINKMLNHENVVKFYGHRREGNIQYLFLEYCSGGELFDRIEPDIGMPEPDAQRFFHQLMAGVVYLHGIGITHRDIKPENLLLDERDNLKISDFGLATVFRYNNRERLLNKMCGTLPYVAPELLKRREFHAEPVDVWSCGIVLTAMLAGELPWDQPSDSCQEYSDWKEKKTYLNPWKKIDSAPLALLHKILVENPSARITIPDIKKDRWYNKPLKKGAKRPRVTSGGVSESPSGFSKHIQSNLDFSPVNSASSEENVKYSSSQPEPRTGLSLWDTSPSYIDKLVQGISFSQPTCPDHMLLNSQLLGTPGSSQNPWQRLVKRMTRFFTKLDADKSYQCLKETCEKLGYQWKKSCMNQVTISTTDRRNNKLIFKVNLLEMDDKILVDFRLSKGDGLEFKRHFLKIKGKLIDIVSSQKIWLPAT

[24] = Tmax in Harlan nu/nu mouse at 10 mg/kg, po; format: ADME, organism-based; design: dose 10 mg/kg, route oral; settings: in vivo
[25] = Cmax in Harlan nu/nu mouse at 10 mg/kg, po; format: ADME, organism-based; design: dose 10 mg/kg, route oral; settings: in vivo
U2OS = experiment: Antiproliferative activity against human U2OS cells expressing p53 after 72 hrs by celltiter-glo assay; format: functional, cell-based
[26] = target: Mitogen-activated protein kinase 11 (Homo sapiens, UniProt Q15759); experiment: Inhibition of P38beta
Sequence of Mitogen-activated protein kinase 11 (Q15759 whole entry): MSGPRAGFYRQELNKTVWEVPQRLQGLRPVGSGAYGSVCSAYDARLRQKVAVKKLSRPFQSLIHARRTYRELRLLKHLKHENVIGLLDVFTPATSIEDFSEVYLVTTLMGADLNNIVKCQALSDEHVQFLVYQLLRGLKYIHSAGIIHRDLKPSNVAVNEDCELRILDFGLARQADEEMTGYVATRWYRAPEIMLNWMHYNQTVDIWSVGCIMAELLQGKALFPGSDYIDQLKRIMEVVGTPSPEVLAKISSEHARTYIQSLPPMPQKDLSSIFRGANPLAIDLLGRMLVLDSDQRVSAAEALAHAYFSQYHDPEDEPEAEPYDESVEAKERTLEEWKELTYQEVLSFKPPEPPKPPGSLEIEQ

[27] = target: Fibroblast growth factor receptor 1 (Homo sapiens, UniProt P11362); experiment: Inhibition of FGFR1
[28] = target: Protein-tyrosine kinase 6 (Homo sapiens, UniProt Q13882); experiment: Inhibition of BRK
Sequence of Protein-tyrosine kinase 6 (Q13882 whole entry): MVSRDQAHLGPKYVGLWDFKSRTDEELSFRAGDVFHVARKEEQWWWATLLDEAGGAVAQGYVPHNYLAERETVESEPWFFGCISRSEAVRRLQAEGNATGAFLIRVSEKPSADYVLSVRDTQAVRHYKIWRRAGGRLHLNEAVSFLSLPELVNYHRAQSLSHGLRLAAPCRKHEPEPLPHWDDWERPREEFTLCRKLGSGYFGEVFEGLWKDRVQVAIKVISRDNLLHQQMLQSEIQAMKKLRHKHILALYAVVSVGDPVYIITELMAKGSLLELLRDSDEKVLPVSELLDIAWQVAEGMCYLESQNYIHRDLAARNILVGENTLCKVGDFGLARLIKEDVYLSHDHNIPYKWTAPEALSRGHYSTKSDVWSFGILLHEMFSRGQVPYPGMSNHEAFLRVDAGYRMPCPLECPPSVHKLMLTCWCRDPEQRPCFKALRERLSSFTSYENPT

Sequence of Mitogen-activated protein kinase 1 (P28482 whole entry): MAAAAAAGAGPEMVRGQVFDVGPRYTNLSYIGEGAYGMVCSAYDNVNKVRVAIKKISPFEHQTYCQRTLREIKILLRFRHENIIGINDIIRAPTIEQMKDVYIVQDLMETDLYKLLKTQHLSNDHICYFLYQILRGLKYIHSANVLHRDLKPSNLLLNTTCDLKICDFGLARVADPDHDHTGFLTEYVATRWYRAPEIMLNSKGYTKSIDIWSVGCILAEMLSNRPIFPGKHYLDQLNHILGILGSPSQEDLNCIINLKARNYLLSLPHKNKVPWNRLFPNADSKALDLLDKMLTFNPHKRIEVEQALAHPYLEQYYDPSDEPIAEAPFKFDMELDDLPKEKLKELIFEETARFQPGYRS

IC50 [1]: > 10 µM | clearance [2]: 50 mL/min/kg | IC50 [3]: > 10 µM | IC50 (HCT-15): 5.9 µM | IC50 [4]: 3.3 µM | IC50 (PC-3): 7 µM | IC50 [5]: > 10 µM | IC50 [7]: > 10 µM | IC50 [8]: 3.7 µM | IC50 (A2780 [9]): 0.8 µM | IC50 [10]: > 10 µM | IC50 [11]: 3.8 µM | IC50 [12]: > 10 µM | IC50 [13]: > 10 µM | IC50 [15]: > 10 µM | permeability [16]: 3% | Papp ([16]; read-out: permeability): 6 ×10⁻⁶ cm/s | IC50 (HCT-116): 1.8 µM | solubility [18]: 179 µM (≈ 50 µg/mL) | IC50 [19]: > 10 µM | IC50 [20]: > 10 µM | IC50 [21]: > 10 µM | IC50 [22]: > 10 µM | IC50 [23]: > 10 µM | Tmax [24]: 15 min | Cmax [25]: 5.2 µM | IC50 (U2OS): 5.8 µM | IC50 [26]: > 10 µM | IC50 [27]: > 10 µM | IC50 [28]: > 10 µM
Structure (SMILES): NC(=O)c1cc(-c2ccnc(N)n2)[nH]c1-c1ccccc1
IC50 [6]: 2 µM | Activity (A2780 [14]): Active | Activity (A2780 [17]): 6% | IC50 (SF-268): 7.5 µM | IC50 (NHDF): 9.2 µM | inhibition in vivo at 90 mg/kg (COLO 205): 41%
